The source of these data is patent US20030203975A1, “Anti-cancer agents” (priority 1998, published 2003).

Assay [1] deals with T1, Topoisomerase IIβ (Homo sapiens, UniProt Q02880). As to the kind of experiment: Topo II cleavage assay. The format is biochemical. Conditions: unit not given; compound at 1, 10, 25 and 50 μM in protocol. On the procedure: (§1) Topo II 5 μl (1-1 μg); […] Results are included in Table 3 below.
Assay [2] has as its target T2, Topoisomerase IIα (Homo sapiens, UniProt P11388). As to the kind of experiment: Topo II cleavage assay. The format is biochemical. More on the design: key: ‘—’ = Not active. The conditions noted are these: unit not given; compound at 1, 10, 25 and 50 μM in protocol. As for the experimental part: as §1
For assay [3], the system named is DNA: Calf thymus sodium salt. Briefly: DNA binding assay, Hoechst dye displacement. More on the design: key: NB = Not binding. Conditions: concentration required to displace 50% of the Hoescht Dye; 20 μM DNA, 2 μM dye. As for the experimental part:
The propensity of selected compounds to bind to DNA in the absence of topos was measured in order to identify compounds that would bind weakly, or not at all. […] A […] was used determine binding constants of the compound to DNA by displacement of either ethidium bromide (an intercalator) or Hoechst dye 33258 (a groove binder) which form a DNA-bound fluorescent complex measured by fluorescence spectroscopy.
DNA Binding Assay Protocol
In order to detect the strength and mode of anthraquinone compound binding to DNA the displacement of known DNA binders was detected by measuring the fluorescence of a DNA/fluorescent compound complex. The addition of known concentrations of ethidium bromide, an interchelator, and Hoescht Dye, a groove binder, cause a fluorescent DNA/binder complex that can be detected and the fluorescence quantified. The addition of anthraquinone compounds displaces the interchelators or groove binders, depending on the compound mode of DNA binding, and therefore reduces the fluorescence accordingly. The preferred binding action of compounds can be quantified by determining the reduction in fluorescence resulting from a given concentration of compound. The quantification of a compounds ability to bind to DNA is expressed, as the concentration required to displace 50% of the ethidium bromide or Hoescht Dye, thus reducing the fluorescence by 50%. Therefore, the values produced are QE50 for ethidium, bromide, or QH50 for Hoescht Dye.
Compound: 300, 60, 10 and 10/6gM (1.66 μM) solution concentrations were prepared for use in the assay to produce a range of compound. Concentrations. 100, 200 and 300 μl of each dilution were used in the assay reaction. This provides a range of concentrations: −30, 20, 10, 6, 4, 2, 1, 0.67, 0.33, 0.17, 0.11, 0.06, 0.00 μM in the assay environment. Intermediate concentrations can be utilised to enhance the accuracy of the displacement concentration determination.
Buffer: 100 mM Tris, NaCI 500 mM. DNA: Calf thymus sodium salt. Stock solution of 200 μM was prepared in 10× assay buffer. Dilution of DNA therefore provided the correct concentration of assay buffer in the assay cell.300 μg DNA was used in 3 ml reaction mixture therefore 20 μM DNA concentration. Hoescht Dye 2 μM final concentration, therefore 100 μl of a 60 μM stock solution was added to a 3 ml assay. Ethidium Bromide 2 μM final concentration therefore 100 μl of a 60 μM stock solution was added to a 3 ml assay. Distilled H2O Water was added to produce 3 ml reaction volume. Order of addition: 1. DNA, 2. Water, 3. Drug, 4. Dye
The assay was completed with both Hoescht Dye and Ethidium. Bromide for each compound. The ethidium bromide is a DNA inter-chelator, Hoescht Dye is a minor groove binder. 100, 200 and […] of the lowest compound dilution was assayed. This procedure was repeated with all further dilution's. This provided a curve of fluorescence intensity decrease with increasing compound concentration. QE50 and QH50 values were determined by extrapolating the concentration of compound at the point where the fluorescence intensity was reduced by 50%. Controls involving compound only and ethidium. bromide or Hoechst Dye without compound were carried out for each experiment. Two readings for each concentration of compound were performed per experiment, each experiment was repeated at least three times. Fluorometer: Perkin Elmer Luminescence Spectrometer LS 50B.

Assay [4] has as its system MAC 15A adenocarcinoma of the colon. As to the kind of experiment: In vitro chemosensitivity against MAC 15A adenocarcinoma (MTT assay). The conditions noted are these: Mus musculus, MAC15A, 96 hours continuous exposure. The format is cell-based.
Assay [5] addresses T2, Topoisomerase IIα. As to the kind of experiment: Topo II relaxation assay. The assay is classed as biochemical. More on the design: key: ‘—’ = Not active. The conditions noted are these: unit not given; compound at 1, 10, 25 and 50 μM in protocol. On the procedure: (§2) Topo II Relaxation Assay Protocol
(§3) 10×Topo II Relaxation Buffer
(§4) 500 mM Tris-HCl (pH 7.5); 100 mM mgCI2; 50 mM EDTA; 300 mg/mI BSA; 10 mM DTT; −20° C.

Assay [6] has as its target T1, Topoisomerase IIβ. Briefly: Topo II relaxation assay. More on the design: key: ‘—’ = Not active. The conditions noted are these: unit not given; compound at 1, 10, 25 and 50 μM in protocol. The assay is classed as biochemical. On the procedure:
as §2, §3, §4

Assay [7] deals with T2, Topoisomerase IIα. As to the kind of experiment: Topo II decatenation assay. The format is biochemical. More on the design: key: ‘—’ = Not active. The conditions noted are these: unit not given; kDNA substrate; compound at 1, 10, 25 and 50 μM in protocol. On the procedure: Topisomerase Decatenation Assay.
This method uses catenated DNA substrate prepared from the kinetoplast of the insect trypanosome Crithidia fasciculata. Upon incubation with topo II, which engages DNA in a double stranded breakage-reunion cycle, DNA minicircles are released. Addition of topo-inhibiting drugs may prevent decatenation.
Topo II Decatenation Assay Protocol
This assay is the same as the Topo II Relaxation assay except that the pBR 322 Plasmid DNA is replaced with kDNA.
Results are included in Table 3 below

Each structure is given as a SMILES string.

T2 sequence (P11388 whole entry): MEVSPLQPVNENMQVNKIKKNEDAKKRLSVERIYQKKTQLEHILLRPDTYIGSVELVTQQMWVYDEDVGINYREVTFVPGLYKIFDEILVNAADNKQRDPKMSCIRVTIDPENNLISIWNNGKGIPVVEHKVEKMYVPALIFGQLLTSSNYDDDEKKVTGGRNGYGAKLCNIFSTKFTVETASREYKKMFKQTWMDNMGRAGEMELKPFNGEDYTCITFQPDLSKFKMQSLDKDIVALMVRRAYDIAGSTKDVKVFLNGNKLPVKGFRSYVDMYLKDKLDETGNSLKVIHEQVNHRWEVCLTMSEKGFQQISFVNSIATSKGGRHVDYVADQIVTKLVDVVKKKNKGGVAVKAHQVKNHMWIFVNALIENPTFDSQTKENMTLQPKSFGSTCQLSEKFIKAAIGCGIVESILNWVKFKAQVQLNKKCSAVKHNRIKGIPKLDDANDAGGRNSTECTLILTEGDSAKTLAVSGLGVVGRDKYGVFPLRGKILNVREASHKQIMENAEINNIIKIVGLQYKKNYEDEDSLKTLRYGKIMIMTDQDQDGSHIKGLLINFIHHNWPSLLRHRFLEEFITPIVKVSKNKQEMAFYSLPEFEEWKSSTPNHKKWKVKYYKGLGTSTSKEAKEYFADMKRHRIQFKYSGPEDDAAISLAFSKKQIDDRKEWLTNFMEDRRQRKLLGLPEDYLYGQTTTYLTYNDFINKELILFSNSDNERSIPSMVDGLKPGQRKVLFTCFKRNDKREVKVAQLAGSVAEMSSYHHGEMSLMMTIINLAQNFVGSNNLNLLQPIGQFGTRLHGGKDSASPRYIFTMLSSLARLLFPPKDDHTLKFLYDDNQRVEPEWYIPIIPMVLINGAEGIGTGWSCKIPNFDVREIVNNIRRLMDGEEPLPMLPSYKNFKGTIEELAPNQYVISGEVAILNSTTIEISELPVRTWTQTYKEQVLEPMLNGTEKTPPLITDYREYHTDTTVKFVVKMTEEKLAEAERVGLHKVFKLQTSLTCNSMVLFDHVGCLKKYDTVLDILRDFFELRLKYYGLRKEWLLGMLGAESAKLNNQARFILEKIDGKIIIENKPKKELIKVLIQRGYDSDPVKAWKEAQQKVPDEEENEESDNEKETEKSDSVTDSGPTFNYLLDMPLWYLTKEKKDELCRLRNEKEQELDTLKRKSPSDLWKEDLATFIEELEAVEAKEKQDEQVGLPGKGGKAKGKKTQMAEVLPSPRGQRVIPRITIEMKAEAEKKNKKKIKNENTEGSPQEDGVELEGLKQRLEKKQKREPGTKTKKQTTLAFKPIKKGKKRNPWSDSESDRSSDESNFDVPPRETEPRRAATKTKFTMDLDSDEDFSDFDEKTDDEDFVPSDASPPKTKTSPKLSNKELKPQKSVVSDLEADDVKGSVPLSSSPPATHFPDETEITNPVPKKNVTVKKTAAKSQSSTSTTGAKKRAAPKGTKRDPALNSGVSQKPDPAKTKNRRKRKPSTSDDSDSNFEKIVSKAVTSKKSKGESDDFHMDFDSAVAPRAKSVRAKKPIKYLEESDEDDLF
T1 sequence (Q02880 whole entry): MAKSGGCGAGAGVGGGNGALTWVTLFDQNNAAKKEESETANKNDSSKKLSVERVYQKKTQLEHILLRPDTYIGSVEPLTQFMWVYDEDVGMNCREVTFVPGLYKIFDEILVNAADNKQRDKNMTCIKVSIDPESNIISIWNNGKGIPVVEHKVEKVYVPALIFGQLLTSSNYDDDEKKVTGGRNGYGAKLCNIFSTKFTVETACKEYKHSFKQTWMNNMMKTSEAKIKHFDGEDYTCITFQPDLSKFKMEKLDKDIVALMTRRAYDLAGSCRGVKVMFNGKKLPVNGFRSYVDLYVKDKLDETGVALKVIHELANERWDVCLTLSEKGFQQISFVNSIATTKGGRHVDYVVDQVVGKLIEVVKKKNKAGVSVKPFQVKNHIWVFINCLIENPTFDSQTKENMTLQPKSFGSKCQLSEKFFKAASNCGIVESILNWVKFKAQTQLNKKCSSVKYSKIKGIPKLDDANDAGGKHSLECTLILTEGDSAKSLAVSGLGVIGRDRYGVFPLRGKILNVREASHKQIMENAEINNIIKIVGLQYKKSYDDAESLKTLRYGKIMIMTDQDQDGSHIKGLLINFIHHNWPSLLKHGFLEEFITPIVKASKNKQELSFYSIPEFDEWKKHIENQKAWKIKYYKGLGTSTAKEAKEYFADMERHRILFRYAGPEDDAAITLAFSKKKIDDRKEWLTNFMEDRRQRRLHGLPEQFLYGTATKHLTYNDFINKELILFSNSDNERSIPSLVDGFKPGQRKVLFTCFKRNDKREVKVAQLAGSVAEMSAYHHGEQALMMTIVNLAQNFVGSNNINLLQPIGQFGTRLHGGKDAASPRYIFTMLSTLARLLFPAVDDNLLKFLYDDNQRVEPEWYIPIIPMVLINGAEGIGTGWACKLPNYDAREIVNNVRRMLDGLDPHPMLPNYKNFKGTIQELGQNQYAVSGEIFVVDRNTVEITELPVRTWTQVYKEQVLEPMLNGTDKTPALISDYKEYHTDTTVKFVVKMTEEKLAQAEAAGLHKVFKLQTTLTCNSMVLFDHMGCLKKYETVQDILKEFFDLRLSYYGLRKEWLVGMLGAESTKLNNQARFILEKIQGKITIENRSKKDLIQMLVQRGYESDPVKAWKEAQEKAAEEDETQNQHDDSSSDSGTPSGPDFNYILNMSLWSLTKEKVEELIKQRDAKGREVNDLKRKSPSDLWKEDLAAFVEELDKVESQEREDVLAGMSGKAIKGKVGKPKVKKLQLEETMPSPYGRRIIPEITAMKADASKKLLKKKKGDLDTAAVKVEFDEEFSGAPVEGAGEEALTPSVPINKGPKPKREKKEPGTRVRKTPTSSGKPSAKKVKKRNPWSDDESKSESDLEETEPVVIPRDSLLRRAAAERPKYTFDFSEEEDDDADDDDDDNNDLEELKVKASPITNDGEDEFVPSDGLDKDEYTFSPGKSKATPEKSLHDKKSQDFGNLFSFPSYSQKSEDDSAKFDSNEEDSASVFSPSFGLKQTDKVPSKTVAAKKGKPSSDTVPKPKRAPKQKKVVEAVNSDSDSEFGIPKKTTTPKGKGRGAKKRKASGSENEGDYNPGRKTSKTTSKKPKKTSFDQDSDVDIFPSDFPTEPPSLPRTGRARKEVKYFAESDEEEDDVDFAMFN

For the molecule `C[C@@H](N)C(=O)OCCCCNc1cccc2c1C(=O)c1ccccc1C2=O.O=C(O)C(F)(F)F` [Example 45, 1-[4-(D-alanyloxy)butylamino]anthracene-9,10-dione trifluoroacetate], the “TopIIβ Cleave.” value on Topoisomerase IIβ [1] amounted to 20. Besides, the “TopIIα Cleave.” value at Topoisomerase IIα [2] was “—”. Besides, the “QH50 Minor groove binding” value in assay [3] is “NB”. In addition, half-maximal inhibition in assay [4] (IC50) was put at 2.9 µM. In addition, the “TopIIα Relax.” value at Topoisomerase IIα [5] is “—”. Moreover, at Topoisomerase IIβ [6], the “TopIIβ Relax.” value came to 25. In addition, on Topoisomerase IIα [7], the “TopIIα Decat.” value is given as “—”.

On to `C[C@H](N)C(=O)OCCCCNc1cccc2c1C(=O)c1ccccc1C2=O.O=C(O)C(F)(F)F` [Example 43, 1-[4-(L-alanyloxy)butylamino]anthracene-9,10-dione trifluoroacetate], for which, on Topoisomerase IIβ [1], the “TopIIβ Cleave.” value was 25. Besides, the “TopIIα Cleave.” value on Topoisomerase IIα [2] was “—”. Further, the “QH50 Minor groove binding” value in assay [3] was “NB”. The molecule further came in with a concentration for half-maximal inhibition (IC50) in assay [4] of 2.6 µM. Besides, at Topoisomerase IIα [5], the “TopIIα Relax.” value is “—”. For the same molecule, the “TopIIβ Relax.” value at Topoisomerase IIβ [6] turned out to be 15. Also, the “TopIIα Decat.” value at Topoisomerase IIα [7] was “—”.
